In patent publication US20240425518A1, “N-MACROCYCLIC AMIDE COMPOUNDS, PREPARATION METHODS THEREOF AND APPLICATIONS THEREOF AS MEDICAMENTS” (Chengdu FANXI Biopharma Co., Ltd., priority 2023, published 2024):
Positions count from the first letter of the chain named.

Tests used:
[1] = from C=CCOCc1cc(NC(=O)OC(C)(C)C)cc(Nc2nccc(-c3cccc(COCC=C)c3)n2)c1; rcm bond; Zhan Catalyst 1B; dichloromethane; 6.66 mM; 50.0 °C; 3.0 h
Ab1 (h) = molecular target: T1, Ab1 (h) (Homo sapiens, UniProt P00519); assay: Radioisotope labeling kinase assay (Eurofins), Ab1; type: biochemical; conditions: 1 μM compound; read-out: Inhibitory activity per unit concentration/Activity % Ab1 (h)
T1 construct: purchased Eurofins
T1 sequence (P00519 whole entry): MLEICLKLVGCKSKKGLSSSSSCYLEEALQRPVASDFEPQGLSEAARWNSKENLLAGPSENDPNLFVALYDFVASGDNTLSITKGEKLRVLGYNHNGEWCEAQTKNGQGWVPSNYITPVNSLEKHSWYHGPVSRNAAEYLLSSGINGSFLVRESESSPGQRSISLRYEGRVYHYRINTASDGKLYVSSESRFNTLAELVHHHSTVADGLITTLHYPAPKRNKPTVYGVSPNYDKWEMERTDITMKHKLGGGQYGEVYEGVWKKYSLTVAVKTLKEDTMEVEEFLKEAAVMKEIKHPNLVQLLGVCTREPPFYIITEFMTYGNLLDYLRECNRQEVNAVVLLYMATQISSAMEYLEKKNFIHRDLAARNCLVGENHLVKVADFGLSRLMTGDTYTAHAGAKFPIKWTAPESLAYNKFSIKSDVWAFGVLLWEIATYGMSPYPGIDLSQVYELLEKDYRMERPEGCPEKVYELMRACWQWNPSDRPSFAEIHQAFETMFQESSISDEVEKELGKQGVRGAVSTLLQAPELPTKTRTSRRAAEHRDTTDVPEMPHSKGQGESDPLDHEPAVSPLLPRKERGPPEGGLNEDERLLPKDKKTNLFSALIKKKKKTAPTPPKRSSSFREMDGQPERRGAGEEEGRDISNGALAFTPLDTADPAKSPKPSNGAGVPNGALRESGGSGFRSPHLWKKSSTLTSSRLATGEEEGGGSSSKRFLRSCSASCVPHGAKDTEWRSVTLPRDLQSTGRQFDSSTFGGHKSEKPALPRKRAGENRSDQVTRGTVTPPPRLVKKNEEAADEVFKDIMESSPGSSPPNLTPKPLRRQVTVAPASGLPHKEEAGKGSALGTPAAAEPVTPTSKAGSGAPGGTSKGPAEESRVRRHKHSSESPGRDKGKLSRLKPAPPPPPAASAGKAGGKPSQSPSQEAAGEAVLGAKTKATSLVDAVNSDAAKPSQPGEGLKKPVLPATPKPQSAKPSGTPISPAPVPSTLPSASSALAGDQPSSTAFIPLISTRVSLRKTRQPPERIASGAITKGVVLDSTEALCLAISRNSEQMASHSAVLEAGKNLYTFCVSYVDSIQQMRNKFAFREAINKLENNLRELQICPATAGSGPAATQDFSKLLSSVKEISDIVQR
Description: (§1) An activity to a human recombinant protein kinase of a series of compounds was determined by a radioisotope labeling method, which was provided by Eurofins Company. A compound to be detected was mixed with a corresponding protein kinase buffer (20 mM propyl sulfonate (MOPS, […].), 1 mM EDTA, 0.10 β-mercaptoethanol, 0.010 Brij-35, […], and 1 mg/mL BSA), the mixture was added into a reaction system (100 μM reaction substrate […], 8 mM MOPS with a pH value of 7.0, 10 mM MgAcetate, 0.2 mM EDTA, and a certain concentration of γ-^33P-ATP). After adding an MgATP composite solution, the reaction was started at room temperature for 40 minutes, and the reaction was terminated by adding 5 μl of […] solution. Then, 10 μl of reaction solution was dropwise added onto a filter and washed with 75 mM phosphoric acid solution for three times, 5 minutes each time, then washed with methanol once again, and dried and subjected to scintillation counting.

BTK (h) = molecular target: T2, BTK (h) (Homo sapiens, UniProt Q06187); assay: Radioisotope labeling kinase assay (Eurofins), BTK; type: biochemical; conditions: 1 μM compound; read-out: Inhibitory activity per unit concentration/Activity % BTK (h)
T2 construct: purchased Eurofins
T2 sequence (Q06187 whole entry): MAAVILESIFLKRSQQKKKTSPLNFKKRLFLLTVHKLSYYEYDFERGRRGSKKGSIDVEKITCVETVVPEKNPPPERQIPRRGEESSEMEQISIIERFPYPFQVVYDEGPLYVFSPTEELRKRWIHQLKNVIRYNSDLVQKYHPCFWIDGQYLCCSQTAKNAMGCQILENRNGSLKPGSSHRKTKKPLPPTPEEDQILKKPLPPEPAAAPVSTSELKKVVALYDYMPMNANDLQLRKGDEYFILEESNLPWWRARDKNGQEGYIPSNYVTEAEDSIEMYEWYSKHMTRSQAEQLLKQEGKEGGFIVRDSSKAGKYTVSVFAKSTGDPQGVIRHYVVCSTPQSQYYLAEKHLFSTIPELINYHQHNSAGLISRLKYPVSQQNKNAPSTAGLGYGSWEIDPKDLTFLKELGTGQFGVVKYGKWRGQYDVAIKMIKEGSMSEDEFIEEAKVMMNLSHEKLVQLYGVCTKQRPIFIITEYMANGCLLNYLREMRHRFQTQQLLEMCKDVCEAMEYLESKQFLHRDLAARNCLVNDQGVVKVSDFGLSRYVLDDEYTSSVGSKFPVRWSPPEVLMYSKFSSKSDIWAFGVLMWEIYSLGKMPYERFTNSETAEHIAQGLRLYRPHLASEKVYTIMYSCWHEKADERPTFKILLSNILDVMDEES
Description: as §1

Flt3 (D835Y) (h) = molecular target: T3, Flt3 (D835Y) (h) (Homo sapiens, UniProt P36888, D835Y); assay: Radioisotope labeling kinase assay (Eurofins), Flt3 (D835Y); type: biochemical; conditions: 1 μM compound; read-out: Inhibitory activity per unit concentration/Activity % Flt3 (D835Y) (h)
T3 construct: purchased Eurofins
T3 sequence (P36888 27-993 D835Y): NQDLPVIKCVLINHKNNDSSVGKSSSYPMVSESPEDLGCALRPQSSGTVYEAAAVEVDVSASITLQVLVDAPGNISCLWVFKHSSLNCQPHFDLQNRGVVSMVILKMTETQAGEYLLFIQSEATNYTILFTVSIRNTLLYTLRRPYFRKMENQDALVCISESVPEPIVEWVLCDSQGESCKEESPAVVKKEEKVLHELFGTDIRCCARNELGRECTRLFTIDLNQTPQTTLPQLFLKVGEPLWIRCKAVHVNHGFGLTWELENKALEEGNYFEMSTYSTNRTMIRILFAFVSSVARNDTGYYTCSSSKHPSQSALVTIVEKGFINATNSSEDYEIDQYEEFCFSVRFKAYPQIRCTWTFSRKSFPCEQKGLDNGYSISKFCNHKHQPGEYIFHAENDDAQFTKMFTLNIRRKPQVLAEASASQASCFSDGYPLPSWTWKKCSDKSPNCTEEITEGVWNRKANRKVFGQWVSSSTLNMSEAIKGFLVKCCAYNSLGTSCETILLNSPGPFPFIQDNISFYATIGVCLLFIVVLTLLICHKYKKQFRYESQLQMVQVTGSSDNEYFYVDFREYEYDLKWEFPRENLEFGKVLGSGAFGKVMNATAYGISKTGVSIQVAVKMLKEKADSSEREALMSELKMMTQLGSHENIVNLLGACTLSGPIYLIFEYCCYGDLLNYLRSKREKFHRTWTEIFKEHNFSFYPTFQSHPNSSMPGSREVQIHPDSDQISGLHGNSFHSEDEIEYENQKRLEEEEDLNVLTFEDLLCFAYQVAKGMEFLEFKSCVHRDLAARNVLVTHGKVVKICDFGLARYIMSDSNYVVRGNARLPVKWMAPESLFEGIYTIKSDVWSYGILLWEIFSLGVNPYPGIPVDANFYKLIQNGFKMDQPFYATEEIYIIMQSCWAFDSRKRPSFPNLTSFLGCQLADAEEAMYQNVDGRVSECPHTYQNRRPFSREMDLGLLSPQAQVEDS
Description: as §1

Flt3 (h) = molecular target: T4, Flt3 (h) (Homo sapiens, UniProt P36888); assay: Radioisotope labeling kinase assay (Eurofins), Flt3; type: biochemical; conditions: 1 μM compound; read-out: Inhibitory activity per unit concentration/Activity % Flt3 (h)
T4 construct: purchased Eurofins
T4 sequence (P36888 27-993): T3 sequence (P36888 27-993 D835Y) with Y809D
Description: as §1

JAK3 (h) = molecular target: T5, JAK3 (h) (Homo sapiens, UniProt P52333); assay: Radioisotope labeling kinase assay (Eurofins), JAK3; type: biochemical; conditions: 1 μM compound; read-out: Inhibitory activity per unit concentration/Activity % JAK3 (h)
T5 construct: purchased Eurofins
T5 sequence (P52333 1-1124): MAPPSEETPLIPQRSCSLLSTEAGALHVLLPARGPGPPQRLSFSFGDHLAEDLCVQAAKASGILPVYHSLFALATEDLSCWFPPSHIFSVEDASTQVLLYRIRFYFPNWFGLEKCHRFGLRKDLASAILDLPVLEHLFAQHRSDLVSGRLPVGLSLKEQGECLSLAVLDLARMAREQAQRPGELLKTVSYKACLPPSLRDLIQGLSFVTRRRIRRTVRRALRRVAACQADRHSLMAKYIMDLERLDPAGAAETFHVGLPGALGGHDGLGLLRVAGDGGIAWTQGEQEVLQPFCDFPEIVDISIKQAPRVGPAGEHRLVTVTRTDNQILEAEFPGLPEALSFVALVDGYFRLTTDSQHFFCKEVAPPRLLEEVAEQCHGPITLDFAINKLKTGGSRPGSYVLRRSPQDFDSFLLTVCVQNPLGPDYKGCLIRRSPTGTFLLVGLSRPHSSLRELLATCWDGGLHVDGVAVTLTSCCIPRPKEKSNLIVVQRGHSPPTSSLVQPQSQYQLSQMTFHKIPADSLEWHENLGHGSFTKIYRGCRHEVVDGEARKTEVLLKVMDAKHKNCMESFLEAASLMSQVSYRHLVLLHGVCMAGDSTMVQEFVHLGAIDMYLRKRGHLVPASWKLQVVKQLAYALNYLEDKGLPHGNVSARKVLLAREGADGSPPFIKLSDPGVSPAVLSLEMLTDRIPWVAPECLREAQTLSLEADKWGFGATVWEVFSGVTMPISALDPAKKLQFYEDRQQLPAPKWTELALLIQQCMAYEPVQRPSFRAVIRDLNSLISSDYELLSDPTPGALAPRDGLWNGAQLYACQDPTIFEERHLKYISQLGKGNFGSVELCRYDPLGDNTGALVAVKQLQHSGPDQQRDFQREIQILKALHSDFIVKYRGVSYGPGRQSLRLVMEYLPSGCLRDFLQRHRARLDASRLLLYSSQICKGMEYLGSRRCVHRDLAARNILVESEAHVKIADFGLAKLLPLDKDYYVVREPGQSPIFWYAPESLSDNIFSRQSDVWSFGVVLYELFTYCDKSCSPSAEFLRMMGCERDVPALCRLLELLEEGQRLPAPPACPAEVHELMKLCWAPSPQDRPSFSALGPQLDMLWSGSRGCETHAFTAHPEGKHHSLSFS
Description: as §1

| SMILES | activity at 1 µM (Ab1 (h)) [%] | activity at 1 µM (BTK (h)) [%] | activity at 1 µM (Flt3 (D835Y) (h)) [%] | activity at 1 µM (Flt3 (h)) [%] | activity at 1 µM (JAK3 (h)) [%] | ring closure, yield of all isomers [1] [%] |
| --- | --- | --- | --- | --- | --- | --- |
| CC(C)(C)OC(=O)Nc1cc2cc(c1)Nc1nccc(n1)-c1cccc(c1)COCC=CCOC2 |  |  |  |  |  | 50 |
| CN1C/C=C/COCc2cccc(c2)-c2ccnc(n2)Nc2cc(cc(NC(=O)/C=C/CN3CCCC3)c2)C1 [XVI-25] | 35 | 64 | 0 | 6 | 83 |  |
| CN1C/C=C/COCc2cccc(c2)-c2ccnc(n2)Nc2cc(cc(NC(=O)/C=C/c3ccc(C#N)cc3)c2)C1 [XVI-27] | 45 | 77 | 2 | 8 | 52 |  |
| CN1C/C=C/COCc2cccc(c2)-c2ccnc(n2)Nc2cc(cc(NC(=O)/C=C/C(F)(F)F)c2)C1 [XVI-29] | 60 | 78 | 3 | 10 | 36 |  |
| CN1C/C=C/COCc2cccc(c2)-c2ccnc(n2)Nc2cc(cc(NC(=O)/C=C/CN3CCOCC3)c2)C1 [XVI-30] | 55 | 66 | 2 | 7 | 61 |  |
| C=CC(=O)Nc1cc2cc(c1)Nc1nccc(n1)-c1cccc(c1)COC/C=C/CN(C)C2 [XVI-31] | 50 | 86 | 2 | 7 | 57 |  |
| CN1C/C=C/COCc2cccc(c2)-c2ccnc(n2)Nc2cc(cc(NC(=O)/C=C/c3cnc[nH]3)c2)C1 [XVI-32] | 50 | 82 | 0 | 5 | 30 |  |
| O=C(/C=C/C(=O)N1CCCC1)Nc1cc2cc(c1)Nc1nccc(n1)-c1cccc(c1)COC/C=C/COC2 [XVI-33] | 38 | 86 | 10 | 2 | 17 |  |
| C1=C/COCc2ccc(O/C=C/CN3CCCC3)c(c2)Nc2nccc(n2)-c2cccc(c2)CCC/1 [XVI-34] | 98 | 87 | 79 | 125 | 87 |  |

More lines, main results first:

| activity at 1 µM (Ab1 (h)) [%] | activity at 1 µM (BTK (h)) [%] | activity at 1 µM (Flt3 (D835Y) (h)) [%] | activity at 1 µM (Flt3 (h)) [%] | activity at 1 µM (JAK3 (h)) [%] | SMILES | ring closure, yield of all isomers [1] [%] |
| --- | --- | --- | --- | --- | --- | --- |
| 13 | 36 | -1 | 5 | 36 | CCCC#CC(=O)Nc1cc2cc(c1)Nc1nccc(n1)-c1cccc(c1)COC/C=C/COC2 [XVII-2] |  |
| 8 | 17 | 0 | 2 | 14 | O=C(C#CCN1CCOCC1)Nc1cc2cc(c1)Nc1nccc(n1)-c1cccc(c1)COC/C=C/COC2 [XVII-3] |  |
| 52 | 80 | 3 | 7 | 83 | CCCC#CC(=O)Nc1cc2cc(c1)Nc1nccc(n1)-c1cccc(c1)COC/C=C/CN(C)C2 [XVII-4] |  |
| 45 | 72 | 1 | 4 | 60 | CN1C/C=C/COCc2cccc(c2)-c2ccnc(n2)Nc2cc(cc(NC(=O)C#CCN3CCOCC3)c2)C1 [XVII-5] |  |
